Earlier results in patent US20070287755A1, “Orally administered compound for preventing neonatal hemorrhages, in a tardy form, caused by a K-vitamin dificiency” (priority 2006, published 2007).

Legend:
[1] = human person, after 72 hours
[2] = tested on: tardy hemorrhagic disease; details: repeated oral doses of 25 micrograms/day, breast-fed newborn babies
[3] = only if a suitable amount of biliar salts is present; lymphatic ways, proximal small intestine

Which presence in blood [1] does the source give for K-vitamin here?
The presence in blood was “practically absent in blood”.

What about the “prophylaxis of tardy hemorrhagic disease” value [2] of the same compound?
The value was “efficient for a full prophylaxis”.

Which “absorption through the gastrointestinal tract” value [3] does the source give for `CC1=C(C/C=C(\C)CCC[C@H](C)CCC[C@H](C)CCCC(C)C)C(=O)c2ccccc2C1=O` [Phytonadion] here?
The value was “nearly fully absorbed”.
